Experimental data reported in US11865126B2, “Method for treating anxiety disorders, headache disorders, and eating disorders with psilocybin” (priority 2019, dated 2024).

Tested on: healthy subjects
Assay: Phase 1 healthy volunteer study, single oral dose: treatment-emergent adverse events
Assay type: in vivo, human
Protocol: A Phase 1 randomized, double-blind, placebo-controlled study to evaluate the effect of psilocybin on cognitive and emotional processing as compared to placebo in healthy volunteers was conducted. The study investigated the short-term (Day 7) and long-term (Day 28) effects of moderate (10 mg) and high doses (25 mg) of psilocybin on key domains of cognition, such as episodic memory, attention, working and spatial memory, social cognition and elements of executive function, including cognitive flexibility.
90 healthy subjects were studied. Approximately 50% of the subjects were psilocybin-naïve. For subjects with prior psilocybin experience, the last exposure was at least 1 year prior to the signing of the Informed Consent Form (ICF). Approximately 50% of the subjects were female. Subjects were stratified by sex and age (18-35 years old; >35 years old).
Each subject was assigned 1 treatment bottle containing 5 capsules packaged in a double-blind fashion, depending on the randomized treatment arm, the bottle contained one of the following: • a. Psilocybin 10 mg: 2×5-mg oral psilocybin capsules plus 3× placebo capsules • b. Psilocybin 25 mg: 5×5-mg oral psilocybin capsules • c. Placebo: 5× placebo capsules
Each 5-mg oral psilocybin capsule comprised 5 mg crystalline psilocybin in the form of Polymorph A, 12.5 mg of SMCC 50, 79.5 mg of SMCC 90, 1 mg sodium starch glycolate, 1 mg colloidal silicon dioxide, and 1 mg sodium stearyl fumarate
Adverse events: Throughout the course of the study, all AEs were monitored and recorded. Each AE was classified according to the following criteria: • i. […] Moderate: The AE produces some impairment of functioning, but is not hazardous to the subject's health. • iii. Severe: The AE produces significant impairment of functioning or incapacitation and is a definite hazard to the subject's health.
Selected Adverse Events of included: • (a) Euphoric mood • (b) Dissociative disorder • (c) Hallucination • (d) Psychotic disorder • (e) Cognitive disorder • (f) Disturbance in attention • (g) Altered mood • (h) Impairment of psychomotor skills • (i) Inappropriate affect • (j) Overdose • (k) Intentional product misuse • (l) Illusion
For example, drug-induced hepatitis that resolved without evidence of hepatic failure would not be considered life threatening even though drug-induced hepatitis can be fatal. • (c) Inpatient hospitalization or prolongation of existing hospitalization. • (d) Persistent or significant disability/incapacity. • (e) Congenital anomaly/birth defect in the offspring of a subject who received psilocybin. • (f) Other: Important medical events that may not result in death, be life-threatening, or require hospitalization, may be considered an SAE when, based upon appropriate medical judgment, they may jeopardize the subject and may require medical or surgical intervention to prevent one of the outcomes listed in this definition. […] Visits:
Visit 3 (V3): Drug Administration (Day 0): The subject was asked to eat a light breakfast at least two hours prior to coming to the clinic for study drug administration. On Day 0 (V3), the subject underwent the SSTS, had vital signs obtained, medications reviewed, AEs recorded and eligibility reviewed prior to being randomized to study drug. The study drug was administered to up to six subjects simultaneously in individual beds separated by a curtain. The subject was invited to put on eyeshades and headphones, lie down and listen to calming music for the rest of the session (six hours). The subject was supported 1:1 with a chaperone and supervised by the study psychiatrist and lead therapist.
Recording of adverse events and prior/concomitant medication was performed at each visit.
During administration of psilocybin, each subject received one on one support from a trained assisting therapist and each dosing session was supervised by a study psychiatrist and a lead therapist. […]

CN(C)CCc1c[nH]c2cccc(OP(=O)(O)O)c12 [psilocybin]
(96.7) %: Any TEAE: % of subjects (25 mg, listed as Psilocybin)
43: Nervous system disorders: Events (25 mg)
9 (30.0): Psychiatric disorders, worst severity Severe: N (%) (25 mg)
8: Reported 'Mood altered' events: Introspection (25 mg psilocybin (n = 30)) | Somatic hallucination, Events (Psilocybin 10 mg (N = 30)) | Euphoric mood, Events (Psilocybin 25 mg (N = 30))
27: Psychiatric disorders, worst severity Severe: Events (25 mg)
6: Somatic hallucination: Events (25 mg) | Tension headache: Events (25 mg) | Time perception altered: Events (25 mg) | Somatic hallucination, Events (Psilocybin 25 mg (N = 30))
23: Mood altered, Events (Psilocybin 10 mg (N = 30))
7: Euphoric mood, Events (Psilocybin 10 mg (N = 30))
3 (10.0): Paraesthesia, worst severity Mild: N (%) (25 mg) | Respiratory, thoracic and mediastinal disorders: N (%) (25 mg) | Hallucination, N (%) (Psilocybin 10 mg (N = 30)) | Affect lability, N (%) (Psilocybin 25 mg (N = 30))
10: Nervous system disorders, worst severity Moderate: Events (25 mg)
4: Paraesthesia: Events (25 mg) | Tension headache, worst severity Mild: Events (25 mg) | Time perception altered, worst severity Moderate: Events (25 mg) | Reported 'Mood altered' events: Reflections (25 mg psilocybin (n = 30)) | Hallucination, auditory, Events (Psilocybin 10 mg (N = 30)) | Hallucination, auditory, Events (Psilocybin 25 mg (N = 30)) | Hallucination, tactile, Events (Psilocybin 25 mg (N = 30))
25: Illusion, Events (Psilocybin 10 mg (N = 30)) | Mood altered, Events (Psilocybin 25 mg (N = 30))
0: Paraesthesia, worst severity Severe: Events (25 mg) | Paraesthesia, worst severity Severe: N (%) (25 mg) | Tension headache, worst severity Severe: Events (25 mg) | Tension headache, worst severity Severe: N (%) (25 mg) | Time perception altered, worst severity Severe: Events (25 mg) | Time perception altered, worst severity Severe: N (%) (25 mg) | Reported 'Mood altered' events: Being less judgmental (25 mg psilocybin (n = 30)) | Reported 'Mood altered' events: Calm (25 mg psilocybin (n = 30)) | Reported 'Mood altered' events: Feeling more moody/sensitive (25 mg psilocybin (n = 30)) | Reported 'Mood altered' events: Feeling of adrenaline release (25 mg psilocybin (n = 30)) | Reported 'Mood altered' events: Feeling rested (25 mg psilocybin (n = 30)) | Reported 'Mood altered' events: Increased wit (25 mg psilocybin (n = 30)) | Reported 'Mood altered' events: Negative mood (25 mg psilocybin (n = 30)) | Reported 'Mood altered' events: Sense of openness (25 mg psilocybin (n = 30)) | Reported 'Mood altered' events: Unusual appreciation of music (25 mg psilocybin (n = 30)) | Substance-induced psychotic disorder, Events (Psilocybin 10 mg (N = 30)) | Substance-induced psychotic disorder, N (%) (Psilocybin 10 mg (N = 30)) | Change in sustained attention, Events (Psilocybin 25 mg (N = 30)) | Change in sustained attention, N (%) (Psilocybin 25 mg (N = 30)) | Hallucination, gustatory, Events (Psilocybin 25 mg (N = 30)) | Hallucination, gustatory, N (%) (Psilocybin 25 mg (N = 30)) | Memory impairment, Events (Psilocybin 25 mg (N = 30)) | Memory impairment, N (%) (Psilocybin 25 mg (N = 30)) | Nervous system disorders, Events (Psilocybin 25 mg (N = 30)) | Nervous system disorders, N (%) (Psilocybin 25 mg (N = 30)) | Psychomotor skills impaired, Events (Psilocybin 25 mg (N = 30)) | Psychomotor skills impaired, N (%) (Psilocybin 25 mg (N = 30))
22: Hallucination, visual, Events (Psilocybin 25 mg (N = 30))
2 (6.7): Nervous system disorders, N (%) (Psilocybin 10 mg (N = 30))
5: Psychiatric disorders, worst severity Mild: Events (25 mg) | Affect lability, Events (Psilocybin 10 mg (N = 30))
27 (90.0): Selected TEAE (any), N (%) (Psilocybin 10 mg (N = 30)) | Selected TEAE (any), N (%) (Psilocybin 25 mg (N = 30))
3: Paraesthesia, worst severity Mild: Events (25 mg) | Respiratory, thoracic and mediastinal disorders: Events (25 mg) | Hallucination, Events (Psilocybin 10 mg (N = 30)) | Affect lability, Events (Psilocybin 25 mg (N = 30))
106: Selected TEAE (any), Events (Psilocybin 10 mg (N = 30)) | Psychiatric disorders, Events (Psilocybin 25 mg (N = 30)) | Selected TEAE (any), Events (Psilocybin 25 mg (N = 30))
20: Hallucination, visual, Events (Psilocybin 10 mg (N = 30))
26: Illusion, Events (Psilocybin 25 mg (N = 30))
1: Nervous system disorders, worst severity Severe: Events (25 mg) | Paraesthesia, worst severity Moderate: Events (25 mg) | Reported 'Mood altered' events: Clarity of thought (25 mg psilocybin (n = 30)) | Reported 'Mood altered' events: Contemplative state (25 mg psilocybin (n = 30)) | Reported 'Mood altered' events: Increased compassion (25 mg psilocybin (n = 30)) | Reported 'Mood altered' events: Increased creativity (25 mg psilocybin (n = 30)) | Reported 'Mood altered' events: Increased sense of connectedness (25 mg psilocybin (n = 30)) | Reported 'Mood altered' events: Laughter (25 mg psilocybin (n = 30)) | Reported 'Mood altered' events: More socially upbeat (25 mg psilocybin (n = 30)) | Reported 'Mood altered' events: Saw themselves from a new perspective (25 mg psilocybin (n = 30)) | Depressed mood, Events (Psilocybin 10 mg (N = 30)) | Hallucination, gustatory, Events (Psilocybin 10 mg (N = 30)) | Hallucination, olfactory, Events (Psilocybin 10 mg (N = 30)) | Memory impairment, Events (Psilocybin 10 mg (N = 30)) | Psychomotor skills impaired, Events (Psilocybin 10 mg (N = 30)) | Hallucination, olfactory, Events (Psilocybin 25 mg (N = 30)) | Substance-induced psychotic disorder, Events (Psilocybin 25 mg (N = 30))
6 (20.0): Tension headache: N (%) (25 mg) | Time perception altered: N (%) (25 mg)
2: Somatic hallucination, worst severity Mild: Events (25 mg) | Somatic hallucination, worst severity Moderate: Events (25 mg) | Somatic hallucination, worst severity Severe: Events (25 mg) | Tension headache, worst severity Moderate: Events (25 mg) | Time perception altered, worst severity Mild: Events (25 mg) | Reported 'Mood altered' events: Increased empathy (25 mg psilocybin (n = 30)) | Reported 'Mood altered' events: Sense of oneness (25 mg psilocybin (n = 30)) | Change in sustained attention, Events (Psilocybin 10 mg (N = 30)) | Dissociative identity disorder, Events (Psilocybin 10 mg (N = 30)) | Hallucination, tactile, Events (Psilocybin 10 mg (N = 30)) | Nervous system disorders, Events (Psilocybin 10 mg (N = 30)) | Depressed mood, Events (Psilocybin 25 mg (N = 30)) | Dissociative identity disorder, Events (Psilocybin 25 mg (N = 30)) | Hallucination, Events (Psilocybin 25 mg (N = 30))
45: Psychiatric disorders, worst severity Moderate: Events (25 mg)
104: Psychiatric disorders, Events (Psilocybin 10 mg (N = 30))
